Our source for the IC50 values is patent US20260325533A1, “CDK INHIBITOR COMPOUNDS” (ALEKSIA THERAPEUTICS, INC., priority 2023, published 2026).

Holding throughout (type): biochemical
One assay addresses CDK2/CCNE1 (Homo sapiens, UniProt P24941). Put plainly: CDK2 homogeneous time-resolved fluorescence (HTRF) kinase assay. Conditions: CDK2/CCNE. The method, boiled down: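 3 nM CDK2/CCNE1 was preincubated with compound for 20 min at 23 °C in HEPES buffer (pH not stated), then reacted 60 min with 1 mM ATP and 50 nM ULight-4E-BP1 (Thr37/46) peptide. After EDTA stop, Eu-anti-phospho-4E-BP1 antibody (2 nM) was added for 60 min and TR-FRET read at 665 nm.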
(TR-FRET usually uses a lanthanide donor and a delayed reading to cut background.)

The next assay concerns the target CDK1/CCNB1 (Homo sapiens, UniProt P06493). Put plainly: CDK1 homogeneous time-resolved fluorescence (HTRF) kinase assay. The following applies: CDK1/CCNB. The method, boiled down:
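0.5 nM CDK1/CCNB1 was preincubated 20 min at 23 °C with compound in HEPES pH-unspecified buffer (MgCl2, EGTA, DTT, Tween 20), then reacted 60 min with 1 mM ATP and 50 nM ULight-4E-BP1 (Thr37/46) peptide. EDTA-stopped reactions were detected with 2 nM Eu-anti-phospho antibody; IC50 from 11-point half-log titrations.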

Another assay concerns the target CDK4/CCND3 (Homo sapiens, UniProt P11802). Nature of the assay: CDK4 homogeneous time-resolved fluorescence (HTRF) kinase assay. Conditions: CDK4/CCND. The method in brief:
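Inhibition of CDK4/CCND3 (1.5 nM) was measured at high ATP (1 mM) using 50 nM ULight-labelled 4E-BP1 Thr37/46 peptide; detection used 2 nM europium anti-phospho antibody after EDTA quench. IC50 values came from 11-point half-log titrations typically starting at 10 μM.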

Another assay deals with CDK6/CCND1 (Homo sapiens, UniProt Q00534). Nature of the assay: CDK6 homogeneous time-resolved fluorescence (HTRF) kinase assay. The following applies: CDK6/CCND. The method, boiled down: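 1 nM enzyme, 1 mM ATP, 50 nM ULight-4E-BP1 (Thr37/46) peptide, 1% DMSO; 20 min compound preincubation, 60 min reaction, 23 °C. EDTA stop, 2 nM Eu-anti-phospho-4E-BP1 antibody 60 min. TR-FRET 665 nm (or 665/615 ratio); IC50 from 11-point half-log titration, top 10 μM.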

Setting [1] is: 25-250 nM marked x, read-out: CDK2/CCNE IC50 25-250 nM.
The mark [2] stands for this setting: >250 nM marked x, read-out: CDK1/CCNB IC50 >250 nM.
Setting [3] is: >250 nM marked x, read-out: CDK4/CCND IC50 >250 nM.
[4] abbreviates: >250 nM marked x, read-out: CDK6/CCND IC50 >250 nM.
Setting [5] is: <25 nM, read-out: CDK2/CCNE IC50 <25 nM.
Setting [6] is: 25-250 nM marked x, read-out: CDK4/CCND IC50 25-250 nM.
Where [7] appears, read: 25-250 nM marked x, read-out: CDK6/CCND IC50 25-250 nM.
Setting [8] is: 25-250 nM marked x, read-out: CDK1/CCNB IC50 25-250 nM.

Read-outs that look alike come from different tables or passages of the source.

CDK1/CCNB1, sequence (P06493 whole entry): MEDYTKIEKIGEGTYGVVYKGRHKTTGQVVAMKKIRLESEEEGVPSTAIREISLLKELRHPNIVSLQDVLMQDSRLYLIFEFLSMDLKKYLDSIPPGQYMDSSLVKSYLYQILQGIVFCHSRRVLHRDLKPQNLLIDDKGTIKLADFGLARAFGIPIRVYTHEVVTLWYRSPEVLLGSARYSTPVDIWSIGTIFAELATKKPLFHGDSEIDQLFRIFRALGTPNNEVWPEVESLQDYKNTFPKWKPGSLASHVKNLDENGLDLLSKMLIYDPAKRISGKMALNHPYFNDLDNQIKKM
CDK1/CCNB1, sequence (P14635 whole entry partner): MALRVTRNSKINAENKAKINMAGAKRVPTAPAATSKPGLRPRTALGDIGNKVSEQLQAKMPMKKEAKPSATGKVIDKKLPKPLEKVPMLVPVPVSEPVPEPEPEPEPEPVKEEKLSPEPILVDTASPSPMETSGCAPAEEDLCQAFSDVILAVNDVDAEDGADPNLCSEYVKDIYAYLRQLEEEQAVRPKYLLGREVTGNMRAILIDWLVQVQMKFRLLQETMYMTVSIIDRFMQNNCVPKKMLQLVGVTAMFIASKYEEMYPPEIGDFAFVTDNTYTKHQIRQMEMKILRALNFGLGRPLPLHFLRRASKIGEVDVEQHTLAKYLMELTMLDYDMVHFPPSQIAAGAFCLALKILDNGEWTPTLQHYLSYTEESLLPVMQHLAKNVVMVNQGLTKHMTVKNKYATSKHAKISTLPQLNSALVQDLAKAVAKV
CDK6/CCND1, sequence (Q00534 whole entry): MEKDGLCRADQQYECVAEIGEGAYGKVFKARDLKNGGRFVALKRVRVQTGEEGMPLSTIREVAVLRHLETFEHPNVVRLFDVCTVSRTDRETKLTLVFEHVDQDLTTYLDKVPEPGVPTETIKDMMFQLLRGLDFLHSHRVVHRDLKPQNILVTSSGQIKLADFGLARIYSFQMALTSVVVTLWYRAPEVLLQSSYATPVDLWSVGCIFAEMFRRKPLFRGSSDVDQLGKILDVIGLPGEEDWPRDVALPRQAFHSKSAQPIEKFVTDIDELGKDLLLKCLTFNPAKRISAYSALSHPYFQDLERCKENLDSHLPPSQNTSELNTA
CDK6/CCND1, sequence (P24385 whole entry partner): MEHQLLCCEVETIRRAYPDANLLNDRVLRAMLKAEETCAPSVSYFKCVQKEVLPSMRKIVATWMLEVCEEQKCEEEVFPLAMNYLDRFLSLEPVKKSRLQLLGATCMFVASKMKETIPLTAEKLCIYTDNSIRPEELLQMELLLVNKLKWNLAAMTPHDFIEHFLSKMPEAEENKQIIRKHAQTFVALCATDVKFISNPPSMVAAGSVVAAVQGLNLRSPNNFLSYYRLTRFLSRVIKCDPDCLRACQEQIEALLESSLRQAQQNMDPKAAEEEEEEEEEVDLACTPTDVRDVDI
CDK4/CCND3, sequence (P11802 whole entry): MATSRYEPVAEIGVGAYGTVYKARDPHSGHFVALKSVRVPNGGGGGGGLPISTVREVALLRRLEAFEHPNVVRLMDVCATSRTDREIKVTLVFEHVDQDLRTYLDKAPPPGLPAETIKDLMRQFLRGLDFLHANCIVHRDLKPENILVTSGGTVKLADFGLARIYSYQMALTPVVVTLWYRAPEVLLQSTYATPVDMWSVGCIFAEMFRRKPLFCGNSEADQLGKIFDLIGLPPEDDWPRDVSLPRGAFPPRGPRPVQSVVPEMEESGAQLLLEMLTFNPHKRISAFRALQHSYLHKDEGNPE
CDK4/CCND3, sequence (P30281 whole entry partner): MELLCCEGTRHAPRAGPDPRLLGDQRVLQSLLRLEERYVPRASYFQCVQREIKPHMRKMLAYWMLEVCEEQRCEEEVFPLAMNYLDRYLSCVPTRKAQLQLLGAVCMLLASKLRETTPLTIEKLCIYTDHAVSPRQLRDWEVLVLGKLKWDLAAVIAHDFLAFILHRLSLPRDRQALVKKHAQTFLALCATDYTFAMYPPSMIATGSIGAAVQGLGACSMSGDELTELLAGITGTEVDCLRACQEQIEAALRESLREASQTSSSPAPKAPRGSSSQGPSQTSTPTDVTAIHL

As for `C=CS(=O)(=O)c1ccc(Nc2cc3c(-c4ccc(C#N)cc4)nccc3cn2)cc1` [Ex 131, 4-(7-((4-(vinylsulfonyl)phenyl)amino)-2,6-naphthyridin-1-yl)benzonitrile], the IC50 is 25 to 250 nM on CDK2/CCNE1 (setting [1]), above 250 nM on CDK1/CCNB1 (setting [2]), above 250 nM on CDK4/CCND3 (setting [3]) and above 250 nM at CDK6/CCND1 (setting [4]).
For the molecule `C=CS(=O)(=O)c1ccc(Nc2cc3c(-c4cccc(C#N)c4)nccc3cn2)cc1` [Ex 136, 3-(7-((4-(vinylsulfonyl)phenyl)amino)-2,6-naphthyridin-1-yl)benzonitrile], the IC50 was 25 to 250 nM at CDK2/CCNE1 (setting [1]), above 250 nM at CDK1/CCNB1 (setting [2]), above 250 nM on CDK4/CCND3 (setting [3]) and above 250 nM at CDK6/CCND1 (setting [4]).
For the molecule `C=CS(=O)(=O)c1ccc(Nc2cc3c(-c4cccc(COC)c4)nccc3cn2)cc1` [Ex 137, 5-(3-(methoxymethyl)phenyl)-N-(4-(vinylsulfonyl)phenyl)-2,6-naphthyridin-3-amine], the IC50 on CDK2/CCNE1 (setting [1]) is 25 to 250 nM; at CDK1/CCNB1 (setting [2]), above 250 nM; on CDK4/CCND3 (setting [3]), above 250 nM; on CDK6/CCND1 (setting [4]), above 250 nM.
For `CS(=O)(=O)c1ccc(Nc2cc3c(C#Cc4ccncc4)nccc3cn2)cc1` [Ex 138, N-(4-(methylsulfonyl)phenyl)-5-(pyridin-4-ylethynyl)-2,6-naphthyridin-3-amine], the IC50 at CDK2/CCNE1 (setting [5]) is below 25 nM; at CDK1/CCNB1 (setting [2]), above 250 nM; at CDK4/CCND3 (setting [6]), 25 to 250 nM; on CDK6/CCND1 (setting [7]), 25 to 250 nM.
On to `CS(=O)(=O)c1ccc(Nc2cc3c(C4=NCCS4)nccc3cn2)cc1` [Ex 139, 5-(4,5-dihydrothiazol-2-yl)-N-(4-(methylsulfonyl)phenyl)-2,6-naphthyridin-3-amine], for which the IC50 at CDK2/CCNE1 (setting [5]) was below 25 nM; at CDK1/CCNB1 (setting [8]), 25 to 250 nM; at CDK4/CCND3 (setting [6]), 25 to 250 nM; at CDK6/CCND1 (setting [7]), 25 to 250 nM.
`C=CS(=O)(=O)c1ccc(Nc2cc3c(-c4ccccc4OC(F)(F)F)nccc3cn2)cc1` [Ex 141, 5-(2-(trifluoromethoxy)phenyl)-N-(4-(vinylsulfonyl)phenyl)-2,6-naphthyridin-3-amine]: the IC50 is 25 to 250 nM on CDK2/CCNE1 (setting [1]), above 250 nM on CDK1/CCNB1 (setting [2]), above 250 nM at CDK4/CCND3 (setting [3]) and above 250 nM at CDK6/CCND1 (setting [4]).
Turning to `C=CS(=O)(=O)c1ccc(Nc2cc3c(-c4ccc5ocnc5c4)nccc3cn2)cc1` [Ex 145, 5-(benzo[d]oxazol-5-yl)-N-(4-(vinylsulfonyl)phenyl)-2,6-naphthyridin-3-amine], the IC50 at CDK2/CCNE1 (setting [1]) is 25 to 250 nM; on CDK1/CCNB1 (setting [2]) it was above 250 nM; at CDK4/CCND3 (setting [3]), above 250 nM; at CDK6/CCND1 (setting [4]) it was above 250 nM.
For `CS(=O)(=O)c1ccc(Nc2cc3c(C4=CCNCC4)nccc3cn2)cc1` [Ex 146, N-(4-(methylsulfonyl)phenyl)-5-(1,2,3,6-tetrahydropyridin-4-yl)-2,6-naphthyridin-3-amine], the IC50 against CDK2/CCNE1 (CDK2/CCNE IC50 25-250 nM, 25-250 nM marked x) was 25 to 250 nM; at CDK1/CCNB1 (CDK1/CCNB IC50 >250 nM, >250 nM marked x), above 250 nM; at CDK4/CCND3 (CDK4/CCND IC50 25-250 nM, 25-250 nM marked x) it was 25 to 250 nM; on CDK6/CCND1 (CDK6/CCND IC50 25-250 nM, 25-250 nM marked x), 25 to 250 nM.
On to `Cc1c(-c2nccc3cnc(Nc4ccc(S(C)(=O)=O)cc4)cc23)ccc2[nH]ncc12` [Ex 148, 5-(4-methyl-1H-indazol-5-yl)-N-(4-(methylsulfonyl)phenyl)-2,6-naphthyridin-3-amine], for which the IC50 was below 25 nM on CDK2/CCNE1 (setting [5]), above 250 nM on CDK1/CCNB1 (setting [2]), 25 to 250 nM on CDK4/CCND3 (setting [6]) and 25 to 250 nM at CDK6/CCND1 (setting [7]).
Turning to `C=CS(=O)(=O)c1ccc(Nc2cc3c(C#CC)nccc3cn2)cc1` [Ex 149, 5-(prop-1-yn-1-yl)-N-(4-(vinylsulfonyl)phenyl)-2,6-naphthyridin-3-amine], the IC50 is below 25 nM on CDK2/CCNE1 (setting [5]), above 250 nM on CDK1/CCNB1 (setting [2]), above 250 nM at CDK4/CCND3 (setting [3]) and above 250 nM at CDK6/CCND1 (setting [4]).
Turning to `CS(=O)(=O)c1ccc(Nc2cc3c(C#C[C@H]4CC[C@H](O)CC4)nccc3cn2)cc1` [Ex 150, (1r,4r)-4-((7-((4-(methylsulfonyl)phenyl)amino)-2,6-naphthyridin-1-yl)ethynyl)cyclohexan-1-ol], the IC50 on CDK2/CCNE1 (setting [5]) was below 25 nM; on CDK1/CCNB1 (setting [2]), above 250 nM; on CDK4/CCND3 (<25 nM, read-out: CDK4/CCND IC50 <25 nM), below 25 nM; at CDK6/CCND1 (setting [7]) it was 25 to 250 nM.
Take `C=CS(=O)(=O)c1ccc(Nc2cc3c(C#Cc4ccc(C#N)cc4)nccc3cn2)cc1` [Ex 156, 4-((7-((4-(vinylsulfonyl)phenyl)amino)-2,6-naphthyridin-1-yl)ethynyl)benzonitrile]: the IC50 at CDK2/CCNE1 (setting [1]) was 25 to 250 nM; on CDK1/CCNB1 (setting [2]) it was above 250 nM; on CDK4/CCND3 (setting [3]) it was above 250 nM; at CDK6/CCND1 (setting [4]), above 250 nM.
For the molecule `Cc1c(-c2nccc3cnc(Nc4ccc(S(C)(=O)=O)cc4)cc23)ccc2c1cnn2C` [Ex 158, 5-(1,4-dimethyl-1H-indazol-5-yl)-N-(4-(methylsulfonyl)phenyl)-2,6-naphthyridin-3-amine], the IC50 at CDK2/CCNE1 (setting [5]) is below 25 nM; on CDK1/CCNB1 (setting [2]) it was above 250 nM; on CDK4/CCND3 (setting [6]) it was 25 to 250 nM; at CDK6/CCND1 (setting [4]), above 250 nM.
Regarding `C=CS(=O)(=O)c1ccc(Nc2cc3c(-c4ccc5cc[nH]c5c4)nccc3cn2)cc1` [Ex 162, 5-(1H-indol-6-yl)-N-(4-(vinylsulfonyl)phenyl)-2,6-naphthyridin-3-amine], the IC50 at CDK2/CCNE1 (setting [5]) is below 25 nM; on CDK1/CCNB1 (setting [2]), above 250 nM; on CDK4/CCND3 (setting [3]) it was above 250 nM; on CDK6/CCND1 (setting [4]), above 250 nM.
Consider `Cc1c(-c2nccc3cnc(Nc4ccc(S(C)(=O)=O)cc4)cc23)ccc2nn(C)cc12` [Ex 166, 5-(2,4-dimethyl-2H-indazol-5-yl)-N-(4-(methylsulfonyl)phenyl)-2,6-naphthyridin-3-amine], for which the IC50 at CDK2/CCNE1 (setting [5]) was below 25 nM; on CDK1/CCNB1 (setting [2]), above 250 nM; at CDK4/CCND3 (setting [6]), 25 to 250 nM; on CDK6/CCND1 (setting [7]) it was 25 to 250 nM.
As to `Cc1nc(-c2nccc3cnc(Nc4ccc(S(C)(=O)=O)cc4)cc23)no1` [Ex 167, 5-(5-methyl-1,2,4-oxadiazol-3-yl)-N-(4-(methylsulfonyl)phenyl)-2,6-naphthyridin-3-amine], the IC50 on CDK2/CCNE1 (setting [1]) is 25 to 250 nM; on CDK1/CCNB1 (setting [2]), above 250 nM; on CDK4/CCND3 (setting [3]), above 250 nM; on CDK6/CCND1 (setting [4]), above 250 nM.
Turning to `CS(=O)(=O)c1ccc(Nc2cc3c(-c4ccc5[nH]ncc5c4Cl)nccc3cn2)cc1` [Ex 183, 5-(4-chloro-1H-indazol-5-yl)-N-(4-(methylsulfonyl)phenyl)-2,6-naphthyridin-3-amine], the IC50 at CDK2/CCNE1 (setting [5]) was below 25 nM; at CDK1/CCNB1 (setting [2]), above 250 nM; at CDK4/CCND3 (setting [6]), 25 to 250 nM; on CDK6/CCND1 (setting [4]) it was above 250 nM.
For `CS(=O)(=O)c1ccc(Nc2cc3c(-c4ccc5[nH]ncc5c4F)nccc3cn2)cc1` [Ex 184, 5-(4-fluoro-1H-indazol-5-yl)-N-(4-(methylsulfonyl)phenyl)-2,6-naphthyridin-3-amine], the IC50 at CDK2/CCNE1 (setting [1]) is 25 to 250 nM; at CDK1/CCNB1 (setting [2]), above 250 nM; at CDK4/CCND3 (setting [6]), 25 to 250 nM; on CDK6/CCND1 (setting [4]) it was above 250 nM.
Consider `C=CS(=O)(=O)c1ccc(Nc2cc3c(-c4ccc5[nH]ccc5c4)nccc3cn2)cc1` [Ex 185, 5-(1H-indol-5-yl)-N-(4-(vinylsulfonyl)phenyl)-2,6-naphthyridin-3-amine], for which the IC50 was 25 to 250 nM at CDK2/CCNE1 (setting [1]), above 250 nM at CDK1/CCNB1 (setting [2]), above 250 nM on CDK4/CCND3 (setting [3]) and above 250 nM on CDK6/CCND1 (setting [4]).
With `N#CC1CCN(c2nccc3cnc(Nc4ccc(S(N)(=O)=O)cc4)cc23)CC1` [Ex 187, 4-((5-(4-cyanopiperidin-1-yl)-2,6-naphthyridin-3-yl)amino)benzenesulfonamide], the IC50 at CDK2/CCNE1 (setting [5]) was below 25 nM; at CDK1/CCNB1 (setting [8]), 25 to 250 nM; at CDK4/CCND3 (setting [6]), 25 to 250 nM; on CDK6/CCND1 (setting [7]), 25 to 250 nM.
As for `CS(=O)(=O)c1ccc(Nc2cc3c(C4CCN(C(=O)Nc5cccnc5)CC4)nccc3cn2)cc1` [Ex 198, 4-(7-((4-(methylsulfonyl)phenyl)amino)-2,6-naphthyridin-1-yl)-N-(pyridin-3-yl)piperidine-1-carboxamide], the IC50 at CDK2/CCNE1 (>250 nM marked x, read-out: CDK2/CCNE IC50 >250 nM) was above 250 nM; on CDK1/CCNB1 (setting [2]) it was above 250 nM; at CDK4/CCND3 (setting [3]), above 250 nM; at CDK6/CCND1 (setting [4]) it was above 250 nM.
